{"source": "patent US20260263624A1", "about": "“COMBINATION OF ANTIBODY-DRUG CONJUGATE AND CANCER THERAPY, AND USE THEREOF” (GENEQUANTUM HEALTHCARE (SUZHOU) CO., LTD., priority 2023, published 2026)", "key": {"[1]": {"test_system": "human breast cancer HER2 IHC 3+ PDX model", "experiment": "In vivo efficacy of GQ01 with TKIs in human breast cancer PDX model (Example 1)", "parameters": "species or system NOD SCID mice", "details": "GQ01 5 mg/kg Q3W×2, combination 5 + 20 mg/kg; for TGI (%): day 77; for Tumor volume (mm^3), Mean ± SEM: end day (day 77)", "description": "I. The tumor tissues of PDX model were extracted from the tumor-bearing mice and then transferred to culture medium, cut into small fragments, and inoculated subcutaneously at the right flank of SPF female NOD SCID mice aged 6~8 weeks.\nII. The tumor diameter was measured with a caliper and the tumor volume was calculated according to the formula V=0.5 a×b^2 (wherein a is the long diameter of the tumor and b is the short diameter of the tumor). […] The tumor volume of mice in each group was measured twice a week."}, "[2]": {"test_system": "gastric cancer HER2 IHC 3+ PDX model", "experiment": "In vivo efficacy of GQ01 with TKIs in human gastric cancer PDX model (Example 4)", "parameters": "species or system Nu/Nu mice", "details": "for TGI (%): day 35; for TGI (%) / Tumor volume (mm^3), Mean ± SEM: GQ01 10 mg/kg single dose; for Tumor volume (mm^3), Mean ± SEM: end day (day 35); for PD (response status, share of animals): 6 mice per group, GQ01 10 mg/kg", "description": "I. The tumor tissues of PDX model were extracted from the tumor-bearing mice and were transferred to RPMI-1640 culture medium, cut into small fragments, and then inoculated subcutaneously in the right flank of SPF female Nu/Nu mice aged 6~8 weeks.\nII. 14 days after inoculation, the tumor diameter was measured with a caliper and the tumor volume was calculated according to the formula V=0.5 a×b2 (wherein a is the long diameter of the tumor and b is the short diameter of the tumor). […] Each group included 6 mice. The day of first administration was defined as day 0. […] The tumor volume of mice in each group was measured twice a week.\nThe response status were calculated based on the diameters or disappearance of target lesions."}, "[3]": {"test_system": "breast cancer HER2 IHC 3+ PDX model (primary resistance to palbociclib)", "experiment": "In vivo efficacy of GQ01 with TKIs in human breast cancer PDX model, primary resistance to palbociclib (Example 2)", "parameters": "species or system NCG mice", "details": "GQ01 5 mg/kg on day 0 and day 28; for TGI (%): day 49; for Tumor volume (mm^3), Mean ± SEM: end day (day 49)", "description": "The model was derived from a patient with Stage III invasive breast cancer who developed metastases to lung and bone after surgery.\nI. The tumor tissues of PDX model were extracted from the tumor-bearing mice and were transferred to culture medium, cut into small fragments, and inoculated subcutaneously in the right flank of SPF female NCG mice aged 6~8 weeks.\nII. 30 days after inoculation, the tumor diameter was measured with a caliper and the tumor volume was calculated according to the formula V=0.5 a×b^2 (wherein a is the long diameter of the tumor and b is the short diameter of the tumor). […] Each group included 6 mice. The day of first administration was defined as day 0. […] The tumor volume of mice was measured twice a week."}, "[4]": {"test_system": "human breast cancer HER2 IHC 3+ PDX model (acquired resistance to trastuzumab and pertuzumab, primary resistance to pyrotinib)", "experiment": "In vivo efficacy of GQ01 with TKIs in human breast cancer PDX model resistant to trastuzumab, pertuzumab and pyrotinib (Example 3)", "parameters": "species or system NCG mice", "details": "for TGI (%): day 42; for TGI (%) / Tumor volume (mm^3), Mean ± SEM: GQ01 3 mg/kg on day 0 and 5 mg/kg on day 21; for Tumor volume (mm^3), Mean ± SEM: end day (day 42)", "description": "This model was derived from a patient with Stage III invasive breast cancer, who was assessed as acquired drug resistance to trastuzumab and pertuzumab and primary resistance to pyrotinib based on the history of treatments.\nI. The tumor tissues of PDX model were extracted from the tumor-bearing mice and were transferred to culture medium, cut into small fragments, and then inoculated subcutaneously in the right flank of SPF female NCG mice aged 6~8 weeks.\nII. 29 days after inoculation, the tumor diameter was measured with a caliper and the tumor volume was calculated according to the formula V=0.5 a×b2 (wherein a is the long diameter of the tumor and b is the short diameter of the tumor). […] Each group included 6 mice. The day of first administration was defined as day 0. […] The tumor volume of mice in each group was measured twice a week."}, "[5]": {"details": "neratinib 20 mg/kg QD×2W+QD×2W, listed as neratinib"}, "[6]": {"details": "pyrotinib 20 mg/kg QD 2 weeks, combination 10 + 20 mg/kg"}, "[7]": {"details": "pyrotinib 20 mg/kg QD 2 weeks, combination 10 + 20 mg/kg, listed as pyrotinib"}, "[8]": {"details": "pyrotinib 20 mg/kg QD day 0-13, 28-41, combination 5 + 20 mg/kg"}, "[9]": {"details": "pyrotinib 20 mg/kg QD day 0-13, 28-41, combination 5 + 20 mg/kg, listed as pyrotinib"}, "[10]": {"details": "pyrotinib 20 mg/kg QD×2W+QD×2W, listed as pyrotinib"}, "[11]": {"details": "pyrotinib 20 mg/kg QD day 0-13, 21-34, combination 3/5 + 20 mg/kg"}, "[12]": {"details": "pyrotinib 20 mg/kg QD day 0-13, 21-34, combination 3/5 + 20 mg/kg, listed as pyrotinib"}, "[13]": {"details": "tucatinib 50 mg/kg QD 2 weeks, combination 10 + 50 mg/kg"}, "[14]": {"details": "tucatinib 50 mg/kg QD 2 weeks, combination 10 + 50 mg/kg, listed as tucatinib"}, "[15]": {"details": "tucatinib 50 mg/kg QD day 0-13, 28-41, combination 5 + 50 mg/kg"}, "[16]": {"details": "tucatinib 50 mg/kg QD day 0-13, 28-41, combination 5 + 50 mg/kg, listed as tucatinib"}, "[17]": {"details": "tucatinib 20 mg/kg BID×2W+BID×2W"}, "[18]": {"details": "tucatinib 20 mg/kg BID×2W+BID×2W, listed as tucatinib"}, "[19]": {"details": "tucatinib 50 mg/kg QD day 0-13, 21-34, combination 3/5 + 50 mg/kg"}, "[20]": {"details": "tucatinib 50 mg/kg QD day 0-13, 21-34, combination 3/5 + 50 mg/kg, listed as tucatinib"}}}
{"compound": "CCOc1cc2ncc(C#N)c(Nc3ccc(OCc4ccccn4)c(Cl)c3)c2cc1NC(=O)/C=C/CN(C)C", "note": "[Neratinib, neratinib]", "values": [{"measurement": "TGI (%)", "setting": "[1]; neratinib 20 mg/kg QD×2W+QD×2W", "result": 61.80, "unit": "%"}, {"measurement": "TGI (%)", "setting": "[1]; [5]", "result": 61.80, "unit": "%"}, {"measurement": "Tumor volume (mm^3), Mean ± SEM", "setting": "[1]; neratinib 20 mg/kg QD×2W+QD×2W", "result": "724 ± 114", "unit": "mm^3"}, {"measurement": "Tumor volume (mm^3), Mean ± SEM", "setting": "[1]; [5]", "result": 724, "unit": "mm^3"}]}
{"compound": "CCOc1cc2ncc(C#N)c(Nc3ccc(OCc4ccccn4)c(Cl)c3)c2cc1NC(=O)/C=C/[C@H]1CCCN1C", "note": "[Pyrotinib, pyrotinib]", "values": [{"measurement": "TGI (%)", "setting": "[2]; [6]", "result": 83.09, "unit": "%"}, {"measurement": "TGI (%)", "setting": "[2]; [7]", "result": 83.09, "unit": "%"}, {"measurement": "Tumor volume (mm^3), Mean ± SEM", "setting": "[2]; [6]", "result": "233.72 ± 39.7", "unit": "mm^3"}, {"measurement": "Tumor volume (mm^3), Mean ± SEM", "setting": "[2]; [7]", "result": 234, "unit": "mm^3"}, {"measurement": "PD (response status, share of animals)", "setting": "[2]; pyrotinib arm table, pyrotinib 20 mg/kg, dash = no animal in this class", "result": 83.33, "unit": "%"}, {"measurement": "TGI (%)", "setting": "[3]; [8]", "result": "−2.65", "unit": "%"}, {"measurement": "TGI (%)", "setting": "[3]; [9]", "result": "−2.65", "unit": "%"}, {"measurement": "Tumor volume (mm^3), Mean ± SEM", "setting": "[3]; [8]", "result": "740.71 ± 146.76", "unit": "mm^3"}, {"measurement": "Tumor volume (mm^3), Mean ± SEM", "setting": "[3]; [9]", "result": 741, "unit": "mm^3"}, {"measurement": "TGI (%)", "setting": "[1]; pyrotinib 20 mg/kg QD×2W+QD×2W", "result": 34.93, "unit": "%"}, {"measurement": "TGI (%)", "setting": "[1]; [10]", "result": 34.93, "unit": "%"}, {"measurement": "Tumor volume (mm^3), Mean ± SEM", "setting": "[1]; pyrotinib 20 mg/kg QD×2W+QD×2W", "result": "1108 ± 202", "unit": "mm^3"}, {"measurement": "Tumor volume (mm^3), Mean ± SEM", "setting": "[1]; [10]", "result": 1108, "unit": "mm^3"}, {"measurement": "TGI (%)", "setting": "[4]; [11]", "result": 10.08, "unit": "%"}, {"measurement": "TGI (%)", "setting": "[4]; [12]", "result": 10.08, "unit": "%"}, {"measurement": "Tumor volume (mm^3), Mean ± SEM", "setting": "[4]; [11]", "result": "1333.21 ± 217.85", "unit": "mm^3"}, {"measurement": "Tumor volume (mm^3), Mean ± SEM", "setting": "[4]; [12]", "result": 1333, "unit": "mm^3"}]}
{"compound": "Cc1cc(Nc2ncnc3ccc(NC4=NC(C)(C)CO4)cc23)ccc1Oc1ccn2ncnc2c1", "note": "[Tucatinib, tucatinib]", "values": [{"measurement": "TGI (%)", "setting": "[2]; [13]", "result": 48.94, "unit": "%"}, {"measurement": "TGI (%)", "setting": "[2]; [14]", "result": 48.94, "unit": "%"}, {"measurement": "Tumor volume (mm^3), Mean ± SEM", "setting": "[2]; [13]", "result": "399.97 ± 43.87", "unit": "mm^3"}, {"measurement": "Tumor volume (mm^3), Mean ± SEM", "setting": "[2]; [14]", "result": 400, "unit": "mm^3"}, {"measurement": "PD (response status, share of animals)", "setting": "[2]; tucatinib arm table, tucatinib 50 mg/kg", "result": 100, "unit": "%"}, {"measurement": "TGI (%)", "setting": "[3]; [15]", "result": "−1.09", "unit": "%"}, {"measurement": "TGI (%)", "setting": "[3]; [16]", "result": "−1.09", "unit": "%"}, {"measurement": "Tumor volume (mm^3), Mean ± SEM", "setting": "[3]; [15]", "result": "732.33 ± 137.71", "unit": "mm^3"}, {"measurement": "Tumor volume (mm^3), Mean ± SEM", "setting": "[3]; [16]", "result": 732, "unit": "mm^3"}, {"measurement": "TGI (%)", "setting": "[1]; [17]", "result": 51.08, "unit": "%"}, {"measurement": "TGI (%)", "setting": "[1]; [18]", "result": 51.08, "unit": "%"}, {"measurement": "Tumor volume (mm^3), Mean ± SEM", "setting": "[1]; [17]", "result": "879 ± 216", "unit": "mm^3"}, {"measurement": "Tumor volume (mm^3), Mean ± SEM", "setting": "[1]; [18]", "result": 879, "unit": "mm^3"}, {"measurement": "TGI (%)", "setting": "[4]; [19]", "result": "−6.46", "unit": "%"}, {"measurement": "TGI (%)", "setting": "[4]; [20]", "result": "−6.46", "unit": "%"}, {"measurement": "Tumor volume (mm^3), Mean ± SEM", "setting": "[4]; [19]", "result": "1557.77 ± 178.71", "unit": "mm^3"}, {"measurement": "Tumor volume (mm^3), Mean ± SEM", "setting": "[4]; [20]", "result": 1558, "unit": "mm^3"}, {"measurement": "response of the model to treatment, in words", "setting": "[4]; tucatinib 50 mg/kg QD day 0-13, 21-34", "result": "doesn't respond"}]}
